Values of other authors in patent publication US6150513A, “Polyketide synthase enzymes and recombinant DNA constructs therefor” (Kosan Biosciences, Inc., priority 1998, dated 2000).
Read-outs that look alike come from different tables or passages of the source. Values belong to the compound of their own block, whether it stands above or below them.

Key:
[1] = tested on: nigral-striatal dopamine neurons; conditions: administration of FKBP ligand
sensory neurons = conditions: compared with FK-506, FK-520 and rapamycin; Steiner et al., 1997
splenocyte proliferation = conditions: Luengo et al., 1995

SMILES: CCC(C)(C)C(=O)C(=O)N1CCC[C@H]1C(=O)OCCCc1cccnc1 [GPI-1046]
effect in primate MPTP model [1]: caused brain cells to regenerate and behavioral measures to improve

SMILES: CC[C@@H]1/C=C(\C)C(O)[C@H](C)C[C@H](OC)[C@H]2O[C@@](O)(C(=O)C(=O)N3CCCC[C@H]3C(=O)O[C@H](/C(C)=C/[C@@H]3CC[C@@H](O)[C@H](OC)C3)[C@H](C)[C@@H](O)CC1=O)[C@H](C)C[C@@H]2OC (stereo partly drawn) [L-685,818]
IC50 (FKBP; see Dumont et al., 1992, read-out: ED50 for FKBP binding): 0.7 nM
promoting neurite outgrowth in sensory neurons (sensory neurons): about as effective as FK-506, FK-520, and rapamycin

IC50 (FKBP; see Ocain et al., 1993, target not given, context FKBP binding, read-out: IC50): 12.5 nM
SMILES: CO[C@H]1C[C@@H]2CC[C@@H](C)[C@@](O)(O2)C(=O)C(=O)N2CCCC[C@H]2C(=O)O[C@H]([C@H](C)C[C@@H]2CC[C@@H](O)[C@H](OC)C2)CC(=O)[C@H](C)/C=C(\C)[C@@H](O)[C@@H](OC)C(=O)[C@H](C)C[C@H](C)C2C=CC(/C=C/1C)n1c(=O)n(-c3ccccc3)c(=O)n12 [WAY-124,466]
promoting neurite outgrowth in sensory neurons (sensory neurons): about as effective as FK-506, FK-520, and rapamycin

reduction in binding to FKBP (FKBP; relative to rapamycin, Luengo et al., 1995): 10 fold
SMILES: COC(=O)N[C@H]1C[C@@H]2CC[C@@H](C)[C@@](O)(O2)C(=O)C(=O)N2CCCC[C@H]2C(=O)O[C@H]([C@H](C)C[C@@H]2CC[C@@H](O)[C@H](OC)C2)CC(=O)[C@H](C)/C=C(\C)[C@@H](O)[C@@H](OC)C(=O)[C@H](C)C[C@H](C)/C=C/C=C/C=C/1C [compound 1]
activity in the splenocyte proliferation assay (splenocyte proliferation): complete loss of activity

binding to FKBP compared with FK-506 (FKBP; in words): about as well as FK-506
SMILES: CC1(C)COC(=O)CCCCCCOc2cccc(c2)[C@@H](CCc2ccccc2)OC(=O)[C@@H]2CCCCN2C(=O)C1=O [compound 2]

SMILES: COC1CC2CCC(C)C(O)(O2)C(=O)C(=O)N2CCCCC2C(=O)NC(CCc2ccccc2)C(=O)NCC(=O)N(C)CC(=O)OC1C (stereo not drawn) [compound 3]
binding to FKBP, poorer than FK-506 (FKBP; relative to FK-506): about 20 fold
